± gives the expanded uncertainty stated by the source.
Assays:
[1] = refractive index (Na D-line) (dimensionless); conditions: 100 kPa, Liquid, Standard Abbe refractometry
[2] = 100 kPa, Liquid; for viscosity: Capillary tube (Ostwald / Ubbelohde) method; for speed of sound: Frequency=3 MHz, Sing-around technique in a fixed-path interferometer; for mass density: Vibrating tube method
[3] = xn = mol fraction of the nth substance listed; conditions: 100 kPa, Liquid, x2 = 0; for viscosity: Capillary tube (Ostwald / Ubbelohde) method; for speed of sound: Frequency=3 MHz, Sing-around technique in a fixed-path interferometer; for mass density: Vibrating tube method
[4] = refractive index (Na D-line) (dimensionless); xn = mol fraction of the nth substance listed; conditions: 100 kPa, Liquid, Standard Abbe refractometry, x2 = 0

CCC(C)O (stereo not drawn) [butan-2-ol]
Conditions | mass density, [2] [kg/m3] | refractive index, [1] | speed of sound, [2] [m/s] | viscosity, [2] [mPa·s]
283.15 K | 814.99 ± 0.24 | 1.40126 ± 0.00033 | 1266 ± 1.3 | 5.652 ± 0.12
298.15 K | 802.71 ± 0.24 | 1.39515 ± 0.00033 | 1212.2 ± 1.3 | 3.07 ± 0.064
313.15 K | 789.86 ± 0.24 | 1.38878 ± 0.00033 | 1157.6 ± 1.2 | 1.796 ± 0.037

CCC(C)O (stereo not drawn) [butan-2-ol] + CC(=O)N(C)C
Conditions | mass density, [3] [kg/m3] | refractive index, [4] | speed of sound, [3] [m/s] | viscosity, [3] [mPa·s]
283.15 K | 814.99 ± 0.24 | 1.40126 ± 0.00033 | 1266 ± 1.3 | 5.652 ± 0.12
298.15 K | 802.71 ± 0.24 | 1.39515 ± 0.00033 | 1212.2 ± 1.3 | 3.07 ± 0.064
313.15 K | 789.86 ± 0.24 | 1.38878 ± 0.00033 | 1157.6 ± 1.2 | 1.796 ± 0.037

CC(C)O [propan-2-ol]
Conditions | mass density, [2] [kg/m3] | refractive index, [1] | speed of sound, [2] [m/s] | viscosity, [2] [mPa·s]
283.15 K | 793.41 ± 0.24 | 1.38149 ± 0.00033 | 1191.9 ± 1.2 | 3.306 ± 0.069
298.15 K | 781.07 ± 0.24 | 1.37505 ± 0.00033 | 1139.2 ± 1.2 | 2.051 ± 0.043
313.15 K | 768 ± 0.24 | 1.36829 ± 0.00033 | 1086.6 ± 1.2 | 1.334 ± 0.028

CC(C)O [propan-2-ol] + CC(=O)N(C)C
Conditions | mass density, [3] [kg/m3] | refractive index, [4] | speed of sound, [3] [m/s] | viscosity, [3] [mPa·s]
283.15 K | 793.41 ± 0.24 | 1.38149 ± 0.00033 | 1191.9 ± 1.2 | 3.306 ± 0.069
298.15 K | 781.07 ± 0.24 | 1.37505 ± 0.00033 | 1139.2 ± 1.2 | 2.051 ± 0.043
313.15 K | 768 ± 0.24 | 1.36829 ± 0.00033 | 1086.6 ± 1.2 | 1.334 ± 0.028

— the NIST ThermoML archive (doi:10.1016/j.tca.2017.06.023)
